# Assay results from patent publication US9556165B2 (priority 2012, dated 2017).
# Read-outs that look alike come from different tables or passages of the source.
# Columns and labels:
# Assay type in all cases: cell-based
# [1] = system: P. aeruginosa 2297 (AmpC wt); assay: MIC determination, broth microdilution (CLSI); details: Pseudomonas aeruginosa, strain 7
# A. baumannii ATCC15308 = assay: MIC determination, broth microdilution (CLSI); details: Acinetobacter baumannii, ATCC15308, strain 9
# C. perfringens DSM756 = assay: microbe, parasite or virus in culture; details: Clostridium perfringens, DSM756, read-out: MIC strain 16 (C. perfringens DSM756), strain 16; broth microdilution
# E. cloacae 34654 = assay: MIC determination, broth microdilution (CLSI); details: Enterobacter cloacae, 34654, strain 3
# S. aureus 133 = assay: MIC determination, broth microdilution (CLSI)
# C. freundii K21/3034 = assay: MIC determination, broth microdilution (CLSI); details: Citrobacter freundii, K21/3034, strain 4
# S. pneumoniae 113 = assay: MIC determination, broth microdilution (CLSI); details: Streptococcus pneumoniae, 113, strain 13; broth microdilution; read-out: MIC strain 13 (S. pneumoniae 113)
# S. maltophilia ICB7569 = assay: MIC determination, broth microdilution (CLSI); details: Stenotrophomonas maltophilia, ICB7569, strain 10
# Bacteria = assay: MIC determination in combination with β-lactamase inhibitors (constant 4 μg/mL)
# B. fragilis 6688 = assay: MIC determination, broth microdilution (CLSI); details: Bacteroides fragilis, 6688, strain 15; broth microdilution; read-out: MIC strain 15 (B. fragilis 6688)
# E. coli J62 = assay: MIC determination, broth microdilution (CLSI); details: Escherichia coli, J62, strain 17; broth microdilution; read-out: MIC strain 17 (E. coli J62)
# H. influenzae ATCC 49247 = assay: MIC determination, broth microdilution (CLSI); details: Haemophilus influenzae, ATCC49247, strain 12; broth microdilution; read-out: MIC strain 12 (H. influenzae ATCC 49247)
# P. aeruginosa PAO1 = assay: MIC determination, broth microdilution (CLSI); details: Pseudomonas aeruginosa, PAO1, strain 6
# E. coli J62-TEM-3 = assay: MIC determination, broth microdilution (CLSI); details: Escherichia coli, J62TEM3, read-out: MIC strain 18 (E. coli J62-TEM-3), strain 18; broth microdilution
# E. coli ATCC25922 = assay: MIC determination, broth microdilution (CLSI); details: Escherichia coli, ATCC25922, strain 1
# M. morganii 126/3048 = assay: MIC determination, broth microdilution (CLSI); details: Morganella morganii, 126/3048, strain 5
# [2] = system: P. aeruginosa 2297-con (AmpC derepressed); assay: MIC determination, broth microdilution (CLSI); details: Pseudomonas aeruginosa, read-out: strain 8 MIC, strain 8
# K. pneumoniae 60 = assay: MIC determination, broth microdilution (CLSI); details: Klebsiella pneumoniae, 60, strain 2
# [3] = Staphylococcus aureus, 133, strain 11, read-out: strain 11 MIC
# [4] = Staphylococcus aureus, 133, strain 14, broth microdilution, read-out: MIC strain 14 (S. aureus 133)
smiles,measurement,setting,value
"CC1(C)[C@H](NC(=O)/C(=N\OCCOc2ccc(C(=N)NCCNC(=N)N)cc2)c2csc(N)n2)C(=O)N1OS(=O)(=O)O [Example 78, (2Z)-2-(2-Amino-1,3-thiazol-4-yl)-2-[(2-{4-[N-(2-carbamimidamidoethyl)carbamimidoyl]phenoxy}ethoxy)imino]-N-[(3S)-2,2-dimethyl-4-oxo-1-(sulfooxy)azetidin-3-yl]ethanamide]",MIC,[1],4 µg/mL
same,MIC,A. baumannii ATCC15308,0.25 µg/mL
same,MIC,C. perfringens DSM756,2 µg/mL
same,MIC,E. cloacae 34654,0.5 µg/mL
same,MIC,S. aureus 133; [3],≤ 0.063 µg/mL
same,MIC,S. aureus 133; [4],1 µg/mL
same,MIC,C. freundii K21/3034,0.25 µg/mL
same,MIC,S. pneumoniae 113,≤ 0.063 µg/mL
same,MIC,S. maltophilia ICB7569,8 µg/mL
same,MIC strain 19 (E. coli J62-TEM-3 + 4 μg/mL clavulanic acid),Bacteria,0.25 µg/mL
same,MIC strain 20 (E. coli J62-TEM-3 + 4 μg/mL sulbactam),Bacteria,0.5 µg/mL
same,MIC strain 21 (E. coli J62-TEM-3 + 4 μg/mL tazobactam),Bacteria,0.5 µg/mL
same,MIC,B. fragilis 6688,4 µg/mL
same,MIC,E. coli J62,0.5 µg/mL
same,MIC,H. influenzae ATCC 49247,≤ 0.063 µg/mL
same,MIC,P. aeruginosa PAO1,4 µg/mL
same,MIC,E. coli J62-TEM-3,4 µg/mL
same,MIC,E. coli ATCC25922,0.25 µg/mL
same,MIC,M. morganii 126/3048,0.5 µg/mL
same,MIC,[2],2 µg/mL
same,MIC,K. pneumoniae 60,0.25 µg/mL
"CC1(C)[C@H](NC(=O)/C(=N\OCCOc2ccc(C(=N)NCCN)nc2)c2csc(N)n2)C(=O)N1OS(=O)(=O)O [Example 82, (2Z)-2-{[2-({6-[N-(2-Aminoethyl)carbamimidoyl]pyridin-3-yl}oxy)ethoxy]imino}-2-(2-amino-1,3-thiazol-4-yl)-N-[(3S)-2,2-dimethyl-4-oxo-1-(sulfooxy)azetidin-3-yl]ethanamide]",MIC,[1],16 µg/mL
same,MIC,A. baumannii ATCC15308,4 µg/mL
same,MIC,C. perfringens DSM756,4 µg/mL
same,MIC,E. cloacae 34654,0.5 µg/mL
same,MIC,S. aureus 133; [3],≤ 0.063 µg/mL
same,MIC,S. aureus 133; [4],8 µg/mL
same,MIC,C. freundii K21/3034,0.25 µg/mL
same,MIC,S. pneumoniae 113,≤ 0.063 µg/mL
same,MIC,S. maltophilia ICB7569,32 µg/mL
same,MIC strain 19 (E. coli J62-TEM-3 + 4 μg/mL clavulanic acid),Bacteria,0.25 µg/mL
same,MIC strain 20 (E. coli J62-TEM-3 + 4 μg/mL sulbactam),Bacteria,0.25 µg/mL
same,MIC strain 21 (E. coli J62-TEM-3 + 4 μg/mL tazobactam),Bacteria,0.5 µg/mL
same,MIC,B. fragilis 6688,4 µg/mL
same,MIC,E. coli J62,0.25 µg/mL
same,MIC,H. influenzae ATCC 49247,≤ 0.063 µg/mL
same,MIC,P. aeruginosa PAO1,8 µg/mL
same,MIC,E. coli J62-TEM-3,8 µg/mL
same,MIC,E. coli ATCC25922,0.25 µg/mL
same,MIC,M. morganii 126/3048,0.5 µg/mL
same,MIC,[2],8 µg/mL
same,MIC,K. pneumoniae 60,0.125 µg/mL
"CC1(C)[C@H](NC(=O)/C(=N\OCCOc2ccc(C(=N)NCCCN)cc2)c2csc(N)n2)C(=O)N1OS(=O)(=O)O [Example 83, (2Z)-2-[(2-{4-[N-(3-Aminopropyl)carbamimidoyl]phenoxy}ethoxy)imino]-2-(2-amino-1,3-thiazol-4-yl)-N-[(3S)-2,2-dimethyl-4-oxo-1-(sulfooxy)azetidin-3-yl]ethanamide]",MIC,[1],4 µg/mL
same,MIC,A. baumannii ATCC15308,0.25 µg/mL
same,MIC,C. perfringens DSM756,2 µg/mL
same,MIC,E. cloacae 34654,0.25 µg/mL
same,MIC,S. aureus 133; [3],≤ 0.063 µg/mL
same,MIC,S. aureus 133; [4],2 µg/mL
same,MIC,C. freundii K21/3034,0.125 µg/mL
same,MIC,S. pneumoniae 113,≤ 0.063 µg/mL
same,MIC,S. maltophilia ICB7569,16 µg/mL
same,MIC strain 19 (E. coli J62-TEM-3 + 4 μg/mL clavulanic acid),Bacteria,0.125 µg/mL
same,MIC strain 20 (E. coli J62-TEM-3 + 4 μg/mL sulbactam),Bacteria,0.25 µg/mL
same,MIC strain 21 (E. coli J62-TEM-3 + 4 μg/mL tazobactam),Bacteria,0.25 µg/mL
same,MIC,B. fragilis 6688,4 µg/mL
same,MIC,E. coli J62,0.25 µg/mL
same,MIC,H. influenzae ATCC 49247,≤ 0.063 µg/mL
same,MIC,P. aeruginosa PAO1,2 µg/mL
same,MIC,E. coli J62-TEM-3,4 µg/mL
same,MIC,E. coli ATCC25922,0.125 µg/mL
same,MIC,M. morganii 126/3048,0.5 µg/mL
same,MIC,[2],4 µg/mL
same,MIC,K. pneumoniae 60,0.25 µg/mL
"CC1(C)[C@H](NC(=O)/C(=N\OCCOc2ccc(C(=N)NC(CN)CN)cc2)c2csc(N)n2)C(=O)N1OS(=O)(=O)O [Example 84, (2Z)-2-(2-Amino-1,3-thiazol-4-yl)-2-[(2-{4-[N-(1,3-diaminopropan-2-yl)carbamimidoyl]phenoxy}ethoxy)imino]-N-[(3S)-2,2-dimethyl-4-oxo-1-(sulfooxy)azetidin-3-yl]ethanamide]",MIC,[1],2 µg/mL
same,MIC,A. baumannii ATCC15308,1 µg/mL
same,MIC,C. perfringens DSM756,2 µg/mL
same,MIC,E. cloacae 34654,0.125 µg/mL
same,MIC,S. aureus 133; [3],≤ 0.063 µg/mL
same,MIC,S. aureus 133; [4],2 µg/mL
same,MIC,C. freundii K21/3034,≤ 0.063 µg/mL
same,MIC,S. pneumoniae 113,≤ 0.063 µg/mL
same,MIC,S. maltophilia ICB7569,32 µg/mL
same,MIC strain 19 (E. coli J62-TEM-3 + 4 μg/mL clavulanic acid),Bacteria,≦0.063 mg/L
same,MIC strain 20 (E. coli J62-TEM-3 + 4 μg/mL sulbactam),Bacteria,0.125 µg/mL
same,MIC strain 21 (E. coli J62-TEM-3 + 4 μg/mL tazobactam),Bacteria,0.125 µg/mL
same,MIC,B. fragilis 6688,4 µg/mL
same,MIC,E. coli J62,0.125 µg/mL
same,MIC,H. influenzae ATCC 49247,≤ 0.063 µg/mL
same,MIC,P. aeruginosa PAO1,1 µg/mL
same,MIC,E. coli J62-TEM-3,4 µg/mL
same,MIC,E. coli ATCC25922,≤ 0.063 µg/mL
same,MIC,M. morganii 126/3048,0.25 µg/mL
same,MIC,[2],2 µg/mL
same,MIC,K. pneumoniae 60,0.125 µg/mL
